Measured values taken from patent publication US20160015638A1, “STABLE GLUCOKINASE ACTIVATOR COMPOSITIONS” (vTv Therapeutics LLC, priority 2013, published 2016).

Experiments:
[1] = X-ray powder diffraction (XRPD) crystal structure before and after processing; assay type: physicochemical
Source text: The crystal structure of {2-[3-cyclohexyl-3-(trans-4-propoxy-cyclohexyl)-ureido]-thiazol-5-ylsulfanyl}-acetic acid was not changed during nanosizing.
The crystal structure of {2-[3-cyclohexyl-3-(trans-4-propoxy-cyclohexyl)-ureido]-thiazol-5-ylsulfanyl}-acetic acid was not changed during spray drying.

[2] = Biopharmaceutics Classification System (BCS) classification; assay type: physicochemical
Source text: As a result, Class IV drugs have poor bioavailability and are usually not well-absorbed while having high variability. Preparing a stable, bioavailable composition containing {2-[3-cyclohexyl-3-(trans-4-propoxy-cyclohexyl)-ureido]-thiazol-5-ylsulfanyl}-acetic acid or a pharmaceutically acceptable salt thereof is, however, not straight forward.

[3] = tested on: insulin secretion by the pancreas; conditions: in the presence of glucose; cited from earlier work

CCCO[C@H]1CC[C@H](N(C(=O)Nc2ncc(SCC(=O)O)s2)C2CCCCC2)CC1 [{2-[3-cyclohexyl-3-(trans-4-propoxy-cyclohexyl)-ureido]-thiazol-5-ylsulfanyl}-acetic acid]
crystal structure (XRPD) ([1]; during nanosizing by microfluidization, lyophilized suspension): not changed | crystal structure (XRPD) ([1]; during spray drying): not changed | Biopharmaceutics Classification System (BCS) class [2]: Class IV | solubility ([2]; BCS classification): low solubility | insulin secretion by the pancreas [3]: does not increase insulin secretion
